Results from patent US11479805B2, “Combinatorial single molecule analysis of chromatin” (The General Hospital Corporation, priority 2015, dated 2022).

How the values were obtained:
nucleosomes from ESCs = assay: Time-lapse TIRF imaging of antibody binding and dissociation on nucleosomes from ESCs; design: species or system Mouse; conditions: images every 15 minutes, FIG. 7B-C
Experimental: FIG. 7A-7F. Time-lapse images detect repeated antibody binding and dissociation events. (A) Mono-nucleosomes were extracted from HEK293 cells, labeled and distributed on the surface as described in FIG. 1A. […] Shown are images taken at 15, 30 and 45 minutes after addition of antibodies. (B-F) Nucleosomes from ESCs were distributed on the surface and incubated with antibodies targeting H3K27me3 (B, D, F) or H3K4me3 (C, E). Time lapse images were taken every 15 minutes. A total of 10,000 individual binding events were analyzed for each antibody. (B-C) Number of binding events detected at each time point. Equilibrium of binding and dissociation of antibodies is achieved at 45 minutes for H3K27me3, and 75 minutes for H3K4me3. Later images show mild reduction in signal due to photo bleaching. (D-E) For each nucleosome, the number of binding events by antibody was calculated in a total of 8 images taken during the time course of the experiment (30-135 minutes). Graph depicts a histogram of the number of images in which each nucleosome is bound by the antibody. Due to repeated binding and dissociation events, most of the nucleosomes are bound more than once. […]
(§1) All experiments were performed on a total internal reflection (TIRF) microscope with two lasers, 532 nm/75 mW and 640 nm/40 mW, for fluorescence excitation (Compass 215M, Cube-40C, Coherent). […]

[1] = tested on: control peptides and singly modified peptides; assay: Antibody specificity peptide array (dot-blot assay); assay type: binding; conditions: FIG. 9
Experimental: FIG. 9A-9B. Peptide array confirms high antibody specificity (A-B) Reactivity of H3K27me3 antibody (A) or H3K4me3 antibody (B) with control peptides and singly modified peptides.
To test for antibody specificity, Applicants used a peptide array with unlabeled antibodies (the same lots of antibodies that were labeled by Cell Signaling and used for the imaging) according to the following protocol: array is immersed in 4 ml blocking solution (TBST containing 5% non-fat dried milk) for 4 hours at room temperature. Next, array is washed 3 times with TBST, and primary antibody is added (diluted in TBST 1:25,000). Antibody is incubated over night at 4° C. on a rotor. Then the array is washed 3 times in TBST and the secondary antibody (Active Motif, 100612) is added for 1 hour at room temperature. Array is washed again 3 times in TBST and the signal is detected by FlourChemQ.

[2] = tested on: recombinant unmodified nucleosomes; assay: Single-molecule antibody binding to recombinant unmodified nucleosomes; conditions: monitored over time; FIG. 8A
Experimental: FIG. 8A-8B. Low background and high specificity of antibody binding. (A) Recombinant unmodified nucleosomes were prepared as previously described (91), and then ligated to biotinylated, fluorescent adaptors as in FIG. 1A. Binding of fluorescently-labeled H3K27me3 antibodies was monitored over time. […] For comparison, also shown are images of H3K27me3 antibody binding to nucleosomes prepared from HEK293 cells. (B) Western-blot analysis of labeled H3K27me3 peptide (TAMRA, green) bound by H3K27me3 antibodies (Alexa647, red). Fluorescent signal on membrane was visualized using a Typhoon trio+imager (Amersham Biosciences).
Applicants imaged millions of nucleosomes and decoded their modification state. Images are analyzed with Cell Profiler software. […] In contrast, when Applicants treated cells with histone deacetylase inhibitors (HDACi), the fraction of acetylated nucleosomes increased to 7% (FIG. 1C, 1D). Importantly, when Applicants repeated the analysis with recombinant unmodified nucleosomes, just 0.1% of nucleosomes scored (FIG. 1E, 8A). […]
as §1

H3K27me3 antibody: Tri-Methyl-Histone H3 (Lys27) (C36B11) Rabbit mAb (Alexa Fluor 647 Conjugate), Cell Signaling #12158
time at which equilibrium of binding and dissociation of antibodies is achieved (nucleosomes from ESCs): 45 min | reactivity with control peptides and singly modified peptides (target specificity) [1]: very high target specificity and low background | binding events on recombinant unmodified nucleosomes [2]: Very few binding events were detected
